Data published in patent US5192766A, “N-acryloylpiperazine derivatives, their preparation and their use as PAF antagonists” (Sankyo Company, Limited, priority 1989, dated 1993).

Legend:
Acute toxicity = type: in vivo; conditions: oral, 300 mg/kg, 3 male ddy mice (5 weeks old), observed one week
Description: Each of the compounds prepared as described in Examples 2, 7 and 15 was separately administered orally in a dose of 300 mg/kg to each of a group of 3 male ddy mice (5 weeks old).

PAF-induced hypotension = test: Inhibition of PAF-induced hypotension; type: in vivo, Wistar-Imamichi rats; conditions: Rattus norvegicus, iv, 1 min; anesthetized rats; l-C16:0 PAF 10 ng/kg i.v.; test compound i.v. cumulatively, 1 min before PAF; read-out: Inhibitory effect ID50
Description: Inhibition of PAF-induced hypotension
The test animals used were Wistar-Imamichi rats, each weighing from 350 to 450 g, anesthetized with Inactin (90 mg/kd, intraperitoneally).
Blood pressure was continuously measured throughout the experiment through a cannula inserted into the femoral artery. Each drug sample to be tested was intravenously injected through a cannula inserted into the femoral vein.
At first, l-C16:0 PAF was injected intravenously in amounts of 10 ng/kg at each injection at intervals of 5 minutes until the degree of the hypotensive response became constant. Then, each drug sample to be treated was intravenously injected. After one minute, the same dose of PAF was administered again. The drug sample was cumulatively administered. From its inhibition rate against the PAF-induced hypotensive effect, the 50% inhibitive dose (ID50) was determined, and is regarded as an index of PAF-antagonist activity. For administration, the PAF was dissolved in physiological saline solution containing 0.25% w/v of bovine serum albumin (BSA). The compounds under test were dissolved in dimethylformamide for use.
CV-3988 is disclosed in U.S. Pat. No. 4,408,052, and is structurally related to PAF itself.
In this Table, the compounds of the invention are identified by the number of the foregoing Example in which they were prepared.

[1] = test system: blood platelet (PAF-induced aggregation); test: Inhibitory effect in vitro against PAF-induced blood platelet aggregation; type: cell-based; conditions: Oryctolagus cuniculus, 5 min; rabbit platelet rich plasma; l-C16:0 PAF final 10^-8 ~3×10^-8 M; 5 min observation
Description: Inhibitory effect in vitro against PAF-induced blood platelet aggregation
Blood samples were drawn from a rabbit and one part by volume of each sample was immediately mixed with 1/9 part of a 3.8% w/v aqueous solution of sodium citrate. The samples were centrifuged at 150×G at room temperature for 15 minutes to obtain a platelet rich plasma (PRP) fraction from the upper layer. The remains were further centrifuged at 1,000×G for 15 minutes to obtain a platelet poor plasma (PPP) fraction from the upper layer. The PRP and PPP fractions were mixed appropriately, to obtain a sample in which the final count of blood platelets was adjusted to be 6×10^5 per ul. According to the method reported by Born et al. [G. V. R. Born et al.: J. Physiol. 62, 67-68 (1962)], blood platelet aggregation was determined by an increase in light transmission measured using an aggregometer. 3 ul of a solution of the test compound in dimethyl sulfoxide were added to 272 ul of PRP, and, after 1 minute, 25 ul of a physiological saline solution containing l-c16:0 PAF (at a final concentration of 10^-8 ~3×10^-8 M) were added. […] At the end of this value and the value of PAF-induced aggregation which was observed when dimethyl sulfoxide only was used without the addition of any test compound. IC50 values were calculated from the dose-response curve.

PAF-receptor = biological target: T1, PAF-receptor (Oryctolagus cuniculus, UniProt G1TEI7); test: Inhibitor effect on PAF-receptor binding; conditions: specific binding of ^3H-PAF; rabbit platelet PAF-receptor membrane fraction; read-out: Inhibition of receptor binding (IC50 M)
T1 construct: is regarded as a PAF-receptor membrane fraction; from tissue; host or cells: rabbit blood platelets (membrane fraction from sucrose density layers)
T1 sequence (G1TEI7 1-342): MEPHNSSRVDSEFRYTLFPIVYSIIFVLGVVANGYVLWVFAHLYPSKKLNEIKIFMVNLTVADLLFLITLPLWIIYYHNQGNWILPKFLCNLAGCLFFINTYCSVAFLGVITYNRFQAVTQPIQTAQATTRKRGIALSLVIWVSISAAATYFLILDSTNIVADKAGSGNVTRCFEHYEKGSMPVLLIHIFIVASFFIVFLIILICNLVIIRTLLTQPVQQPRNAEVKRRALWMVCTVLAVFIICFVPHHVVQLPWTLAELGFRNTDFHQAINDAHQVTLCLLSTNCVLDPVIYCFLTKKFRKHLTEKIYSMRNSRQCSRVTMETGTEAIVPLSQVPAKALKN
Text: Inhibitor effect on PAF-receptor binding
Blood samples were drawn from the heart of a rabbit. 1 part by volume of each sample was mixed immediately with 1/9 part of 0.77M solution of disodium ethylenediaminetetraacetate. After a similar procedure to that described in Experiment 2, a precipitated blood platelet sample was obtained. This blood platelet sample was washed, and, after repeated freezing and thawing for cellular breakdown, it was laid on top of double layers consisting of […] and 1.5M sucrose solutions. By centrifugation at 63,500×G, for 2 hours at 4° C., the fraction obtained from the interface between the 0.25M and 1.5M sucrose solutions was collected and is regarded as a PAF-receptor membrane fraction. A receptor binding experiment was conducted according to a method very similar to that reported by Hwang et al. [San-Bao Hwang et al.: J. Biol. Chem. 260, 15639-15645 (1985)]. The specific binding of ^3 H-PAF was measured using a Wattman GF/C filter. A test compound was dissolved in dimethyl sulfoxide and diluted 100 fold with a buffer solution containing 0.5% bovine serum albumin. Nine parts by weight of the solution, for a receptor binding experiment, was mixed with one part of the test compound solution prepared above. The percent inhibition of the specific binding was plotted for a log concentration of the test compound, and the 50% inhibitory concentration (IC50) was calculated from the linear line connecting all the plotted points.

Compound | Acute toxicity (survival) (Acute toxicity) | ED50 (PAF-induced hypotension) | IC50 [1] | IC50 (PAF-receptor)
COc1ccc(/C(=C/C(=O)N2CCN(C(=O)c3cc(OC)c(OC)c(OC)c3)CC2)c2ccccc2)cc1OC [Example 7, 1-[(E)-3-(3,4-Dimethoxyphenyl)cinnamoyl]-4-(3,4,5-trimethoxybenzoyl)piperazine] | all mice survived | 0.014 mg/kg |  | 
COc1ccc(C(=CC(=O)N2CCN(C(=O)c3cc(OC)c(OC)c(OC)c3)CC2)c2ccc(OC)cc2)cc1 [Example 2, 1-[3,3-Bis(4-methoxyphenyl)acryloyl]-4-(3,4,5-trimethoxybenzoyl)piperazine] | all mice survived | 0.039 mg/kg | 200 nM | 
COc1ccc(/C(=C/C(=O)N2CCN(C(=O)c3cc(OC)c(OC)c(OC)c3)CC2)c2ccc(Cl)cc2)cc1OC [Example 15, 1-[(E)-3-(4-Chlorophenyl)-3-(3,4-dimethoxyphenyl)acryloyl]-4-(3,4,5-trimethoxybenzoyl)piperazine] | all mice survived | 0.022 mg/kg | 68 nM | 43 nM
COc1cc(C(=O)N2CCN(C(=O)/C=C(/c3ccccc3)c3cccs3)CC2)cc(OC)c1OC [Example 5, 1-[(Z)-3-Phenyl-3-(2-thienyl)acryloyl]-4-(3,4,5-trimethoxybenzoyl)piperazin] |  | 0.054 mg/kg | 260 nM | 47 nM
